Active and inactive are the calls of the source. Cut-off read from the data, not from the text of the source: actives have a measured IC50 and inactives only a lower limit.
Assays:
Type in all cases: functional
[1] = target: T1, Sentrin-specific protease 6 (Homo sapiens, UniProt Q9GZR1); test: inhibition of human SENP6 catalytic domain – biochemical, luminescence, set 2, SAR follow-up (AID 588598)
T1 sequence (Q9GZR1 whole entry): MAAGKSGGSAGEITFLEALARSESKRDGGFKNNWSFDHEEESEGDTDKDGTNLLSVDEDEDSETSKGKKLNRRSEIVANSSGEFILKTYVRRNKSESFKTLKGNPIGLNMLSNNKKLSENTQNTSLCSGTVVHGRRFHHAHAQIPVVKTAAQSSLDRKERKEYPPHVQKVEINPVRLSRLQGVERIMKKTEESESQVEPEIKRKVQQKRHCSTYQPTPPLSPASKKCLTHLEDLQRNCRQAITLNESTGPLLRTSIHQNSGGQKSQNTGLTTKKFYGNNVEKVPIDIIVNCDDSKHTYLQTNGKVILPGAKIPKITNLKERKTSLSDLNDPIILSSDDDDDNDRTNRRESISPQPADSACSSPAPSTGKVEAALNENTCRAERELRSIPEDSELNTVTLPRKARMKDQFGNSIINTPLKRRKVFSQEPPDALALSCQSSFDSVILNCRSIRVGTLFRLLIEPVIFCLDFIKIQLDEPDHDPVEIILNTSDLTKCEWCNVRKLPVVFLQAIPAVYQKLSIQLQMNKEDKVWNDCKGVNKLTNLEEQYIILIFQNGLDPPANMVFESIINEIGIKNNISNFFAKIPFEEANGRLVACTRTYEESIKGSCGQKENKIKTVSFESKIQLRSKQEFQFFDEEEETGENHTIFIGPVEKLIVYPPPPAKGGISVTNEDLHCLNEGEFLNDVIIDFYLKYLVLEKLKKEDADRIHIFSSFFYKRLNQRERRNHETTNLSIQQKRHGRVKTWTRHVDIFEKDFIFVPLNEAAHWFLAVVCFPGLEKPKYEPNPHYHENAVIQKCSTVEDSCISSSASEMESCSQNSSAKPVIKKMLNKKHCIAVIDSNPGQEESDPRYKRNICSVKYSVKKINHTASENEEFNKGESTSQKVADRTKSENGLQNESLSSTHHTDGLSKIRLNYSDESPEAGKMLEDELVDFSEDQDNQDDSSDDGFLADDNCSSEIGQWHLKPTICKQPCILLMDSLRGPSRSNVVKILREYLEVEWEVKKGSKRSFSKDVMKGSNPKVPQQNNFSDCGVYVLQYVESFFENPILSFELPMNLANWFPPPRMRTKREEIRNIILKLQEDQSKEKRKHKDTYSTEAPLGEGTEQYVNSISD

[2] = target: T2, Sentrin-specific protease 8 (Homo sapiens, UniProt Q96LD8); test: inhibition of sentrin protease 8 – biochemical, luminescence, set 2, SAR follow-up (AID 588601)
T2 sequence (Q96LD8 whole entry): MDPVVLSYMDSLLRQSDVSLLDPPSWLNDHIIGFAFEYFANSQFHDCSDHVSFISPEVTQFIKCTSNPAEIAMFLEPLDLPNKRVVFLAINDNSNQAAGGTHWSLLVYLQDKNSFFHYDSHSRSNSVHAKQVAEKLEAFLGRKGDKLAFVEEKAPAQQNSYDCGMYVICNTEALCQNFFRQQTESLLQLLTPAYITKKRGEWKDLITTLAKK

Caspase-3 = target: T3, Caspase-3 (Homo sapiens, UniProt P42574); test: inhibition of recombinant caspase-3 activity – biochemical, luminescence, set 2, selectivity assay for SENP protease inhibitor project, SAR follow-up (AID 588599)
T3 sequence (P42574 whole entry): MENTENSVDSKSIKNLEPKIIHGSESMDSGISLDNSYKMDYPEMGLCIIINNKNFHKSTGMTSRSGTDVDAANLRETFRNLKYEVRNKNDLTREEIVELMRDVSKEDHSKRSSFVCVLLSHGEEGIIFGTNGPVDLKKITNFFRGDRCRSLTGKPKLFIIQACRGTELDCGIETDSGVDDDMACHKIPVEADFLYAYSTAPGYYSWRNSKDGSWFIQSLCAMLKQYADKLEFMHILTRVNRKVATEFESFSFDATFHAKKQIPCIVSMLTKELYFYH

[3] = target: T4, Sentrin-specific protease 7 (Homo sapiens, UniProt Q9BQF6); test: inhibition of human SENP7 cleavage activity – biochemical, luminescence, set 2, SAR follow-up (AID 588600)
T4 sequence (Q9BQF6 whole entry): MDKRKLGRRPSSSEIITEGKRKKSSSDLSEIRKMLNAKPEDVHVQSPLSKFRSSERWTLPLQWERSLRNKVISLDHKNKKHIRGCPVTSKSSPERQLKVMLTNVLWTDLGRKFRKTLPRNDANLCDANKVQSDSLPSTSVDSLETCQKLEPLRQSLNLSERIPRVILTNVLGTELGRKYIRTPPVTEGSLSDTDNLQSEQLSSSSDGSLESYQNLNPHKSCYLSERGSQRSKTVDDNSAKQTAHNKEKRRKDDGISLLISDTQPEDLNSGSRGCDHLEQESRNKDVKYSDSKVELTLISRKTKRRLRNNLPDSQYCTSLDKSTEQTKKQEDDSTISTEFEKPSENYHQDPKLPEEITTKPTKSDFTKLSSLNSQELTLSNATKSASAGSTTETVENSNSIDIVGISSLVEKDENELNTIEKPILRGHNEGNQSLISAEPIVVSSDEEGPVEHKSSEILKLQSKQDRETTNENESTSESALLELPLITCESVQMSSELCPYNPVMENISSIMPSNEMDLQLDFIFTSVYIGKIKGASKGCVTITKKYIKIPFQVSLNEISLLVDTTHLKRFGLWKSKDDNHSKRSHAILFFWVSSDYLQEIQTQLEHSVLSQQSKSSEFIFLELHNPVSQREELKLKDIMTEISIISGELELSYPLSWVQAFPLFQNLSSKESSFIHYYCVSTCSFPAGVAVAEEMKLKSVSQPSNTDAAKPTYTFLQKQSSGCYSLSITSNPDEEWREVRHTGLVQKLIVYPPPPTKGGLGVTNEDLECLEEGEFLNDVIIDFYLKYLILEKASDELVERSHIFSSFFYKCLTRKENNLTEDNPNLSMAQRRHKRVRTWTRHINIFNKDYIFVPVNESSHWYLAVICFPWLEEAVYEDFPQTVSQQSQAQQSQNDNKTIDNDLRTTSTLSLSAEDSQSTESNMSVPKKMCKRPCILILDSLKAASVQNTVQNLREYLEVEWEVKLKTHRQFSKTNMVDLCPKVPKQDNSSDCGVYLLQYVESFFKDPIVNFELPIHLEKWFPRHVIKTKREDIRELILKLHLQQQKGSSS

Measured: IC50

CCCN(CCC)S(=O)(=O)c1ccc2[nH]cc(/C=N/NC(=S)Nc3ccc(F)c(Cl)c3)c2c1
inactive: [1] > 99 µM | [2] > 99 µM | Caspase-3 > 99 µM | [3] > 99 µM

— ChEMBL document CHEMBL1201862, “PubChem BioAssay data set” (2004)
